From patent US5763435A, “Sulfate conjugates of ursodeoxycholic acid, and their beneficial use in inflammatory disorders” (priority 1995, dated 1998)
Several values for one entry are separate records, joined by “and”; a condition that tells them apart may be missing. Identical values can stand only once. Entries after “also recorded” stand apart in the source; their conditions may differ.

What was measured:
biliary lipid secretion = experiment: Biliary lipid (cholesterol, phospholipid) secretion during i.v. infusion; type: in vivo, Sprague-Dawley rats; settings: for Cholesterol output, maximal change / Phospholipid output, maximal change: mean ± SEM, six animals
Experimental: (§1) Adult male Sprague-Dawley rats (body weight 200-230 g) were anesthetized by an intraperitoneal injection of pentobarbital (Nembutal, 7.5 mg/100 g body weight), and maintained under sedation by additional doses. The right jugular vein and the common bile duct were cannulated using PE-50 polyethylene tubing (Clay-Adams, Parsippany, N.J.). Body temperature was maintained throughout the experiment at 37° C. using a rectal probe and a thermostatically controlled heating pad (Harvard Apparatus Co., Inc., Millis, Mass.). Saline was infused at a rate of 1.0 ml/h using a Harvard pump (Harvard Apparatus Co., Inc.) into the jugular vein for a control period of 2h. After collecting two 10 minute bile samples for base-line analysis, the bile acids were individually infused intravenously (i.v.) for 30 minutes in stepwise increasing doses (0.5, 1.0, and 2.0 μmol/min/100 g body weight). Bile acid solutions were prepared in 3% human albumin in 0.45% saline. Six animals were used for each experiment and bile was collected every 10 minutes into preweighed tubes. At the end of the experiment, blood was obtained by cardiac puncture, and urine was obtained by aspiration of the bladder. All biological specimens were stored at -20° C. This animal study protocol (#1 B 10044) was approved by the Bioethics committee of the Children's Hospital Medical Center (Cincinnati, Ohio).
Bile volume was determined gravimetrically assuming a density of 1 g/ml. Total 3α-hydroxy bile acid concentration in the bile was measured enzymatically before solvolysis (nonsulfated bile acids) and after solvolysis (total bile acids) (Mashige, F., et al., Direct spectrometry of total bile acids in serum. Clin. Chem. 27: 1352-1356 (1981)). The bile acid output was calculated by multiplying the rate of bile-flow by the bile acid concentration. Biliary phospholipids were determined by an enzymatic procedure based on the choline oxidase method (Nippon Shoji Kaisha, Ltd., Osaka, Japan) (Grantz, D., et al., Enzymatic measurement of choline-containing phospholipids in bile. J. Lipid Res. 22: 273-276 (1981)). Cholesterol was also measured enzymatically (Boehringer Mannehim, Indianapolis, Ind.) (Fromm, H., et al., Use of a simple enzymatic assay for cholesterol analysis in human bile. J. Lipid Res. 21: 259-261 (1980)).
Results were expressed as mean±standard error of mean (SEM). Bile-flow and biliary lipid output were expressed as μl /min/g liver and nmol/min/g liver, respectively. Statistical analysis was made using INSTAT program (Graphpad Software Inc., San Diego, Calif.). Parametric data among groups were analyzed using Student's t-test. The statistical comparisons between the different groups were made by one-way analysis of variance (ANOVA). […] Linear regression analysis was performed. The choleretic activity of each bile acid was determined from the slope of regression line of the correlation between the bile acid secretion rate and bile-flow and was expressed as […]. Comparisons between slopes were made by one-way ANOVA.

[1] = Hepatic biotransformation of infused bile acid (negative ion FAB-MS, conjugate separation); type: in vivo, Sprague-Dawley rats; settings: i.v. infusion
Experimental: as §1
Negative ion fast atom bombardment-mass spectrometry (FAB-MS) spectra of bile samples, urine and synthetic compounds were obtained after placing the equivalent of approximately 1 μl of the original bile extract, 10 μl-50 μl of the urine extract and jig quantities of synthetic bile acids dissolved in methanol onto a small drop of a glycerol matrix spotted on a copper target of the FAB probe. This probe was introduced directly into the ion source of the mass spectrometer and a beam of fast atoms of either xenon generated with a saddle field atom gun (ion Tech, Teddington, Middlesex, UK) operated at 8 kV and 20 μA, or cesium generated from cesium iodine (35 kV), was fired at the target containing the sample. Negative ion spectra were obtained over the mass range of 50-1000 Da/e.
For the determination of hepatic biotransformation of the infused bile acid, bile collections from the six animal were pooled and biliary bile acids were determined by GC-MS after extraction, solvolysis, hydrolysis, and derivatization. Quantification of bile acids was achieved using GC, by comparing the peak height response of the individual bile acid with the peak height response obtained from the internal standard, nordeoxycholic acid added to the initial sample of bile. Identification of a bile acid was made on the basis of the retention index relative to a homologous series of n-alkanes, referred to as the methylene unit value (MU) and the fragmentation pattern of the mass spectrum was compared with authentic standards. A list of over 100 mass spectra of authentic bile acid standards and retention indices was recently compiled as a reference source (Lawson, A. M., et al, Mass spectrometry of bile acids, The Bile Acids, Vol. 4, Methods and Applications, pp. 167-267 (1988)).
In the case of the animals infused with UDCA-3S, bile was collected during the final period of bile acid infusion ([…]). Bile acids were solvolyzed and separated into groups based on their mode of conjugation using the lipophilic anion exchange gel, diethylaminohydroxypropyl Sephadex LH-20; Packard Instruments, Groningen, The Netherlands). Bile acid composition was determined in each fraction by GC-MS after hydrolysis and preparation of the Me-TMS ethers.

C[C@H](CCC(=O)O)[C@H]1CC[C@H]2[C@@H]3[C@@H](O)C[C@@H]4C[C@H](OS(=O)(=O)O)CC[C@]4(C)[C@H]3CC[C@]12C [UDCA-3S, ursodeoxycholic acid 3-sulfate]
Biliary cholesterol secretion (in words) (biliary lipid secretion): significantly reduced the biliary cholesterol output
Biliary phospholipid secretion (in words) (biliary lipid secretion): significant reduction in biliary phospholipids
Cholesterol output, maximal change (biliary lipid secretion): 0.40 ± 0.02 nmol/min/g liver and 0.40±0.05 nmol/min/g liver
Phospholipid output, maximal change (biliary lipid secretion): 4.00 ± 0.50 nmol/min/g liver
Hepatic biotransformation / form secreted in bile (in words) ([1]; listed as C-3 sulfate of UDCA): secreted into bile to a limited extent unchanged, but also underwent appreciable amidation with taurine and glycine and further hydroxylation

C[C@H](CCC(=O)O)[C@H]1CC[C@H]2[C@@H]3[C@@H](OS(=O)(=O)O)C[C@@H]4C[C@H](O)CC[C@]4(C)[C@H]3CC[C@]12C [UDCA-7S, ursodeoxycholic acid 7-sulfate]
Biliary cholesterol secretion (in words) (biliary lipid secretion): cholesterol secretion was maintained
Biliary phospholipid secretion (in words) (biliary lipid secretion): increased significantly
Cholesterol output, maximal change (biliary lipid secretion): 1.76 ± 0.23 nmol/min/g liver and 1.76±0.21 nmol/min/g liver
Phospholipid output, maximal change (biliary lipid secretion): 15.00 ± 1.70 nmol/min/g liver
Hepatic biotransformation / form secreted in bile (in words) [1]: No other significant ions were present to indicate further metabolic transformation; also recorded: not amidated with taurine or glycine
Hepatic biotransformation / form secreted in bile (in words) ([1]; listed as UDCA-7-sulfate): secreted into bile unchanged

C[C@H](CCC(=O)O)[C@H]1CC[C@H]2[C@@H]3[C@@H](O)C[C@@H]4C[C@H](O)CC[C@]4(C)[C@H]3CC[C@]12C [UDCA, 3 alpha, 7 beta-dihydroxy-5 beta-cholan-24oic acid, reference compound]
Biliary cholesterol secretion (in words) (biliary lipid secretion): significant decline
Biliary phospholipid secretion (in words) (biliary lipid secretion): increased significantly
Cholesterol output, maximal change (biliary lipid secretion): 1.88 ± 0.19 nmol/min/g liver
Phospholipid output, maximal change (biliary lipid secretion): 17.20 ± 1.90 nmol/min/g liver
Hepatic biotransformation / form secreted in bile (in words) [1]: almost exclusively conjugated with taurine and glycine; also recorded: mainly conjugated with taurine, and to a lesser extent was converted to glycine, sulfate and flucuronide conjugates

C[C@H](CCC(=O)O)[C@H]1CC[C@H]2[C@@H]3[C@@H](OS(=O)(=O)O)C[C@@H]4C[C@H](OS(=O)(=O)O)CC[C@]4(C)[C@H]3CC[C@]12C [UDCA-DS, ursodeoxycholic acid 3,7-disulfate]
Biliary cholesterol secretion (in words) (biliary lipid secretion): significantly reduced the biliary cholesterol output
Biliary phospholipid secretion (in words) (biliary lipid secretion): significant reduction in biliary phospholipids
Cholesterol output, maximal change (biliary lipid secretion): 0.37 ± 0.07 nmol/min/g liver and 0.37±0.12 nmol/min/g liver
Phospholipid output, maximal change (biliary lipid secretion): 2.50 ± 0.30 nmol/min/g liver
Hepatic biotransformation / form secreted in bile (in words) [1]: No other ions were present to suggest further metabolic transformation; also recorded: not amidated with taurine or glycine
Hepatic biotransformation / form secreted in bile (in words) ([1]; listed as UDCA-disulfate): secreted into bile unchanged
